Assay results published in ChEMBL document CHEMBL1201862, “PubChem BioAssay data set” (2004).
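Five compound concentrations were applied to cells in 96-well plates for 48 hours; endpoints were derived by simple linear interpolation of the resulting dose-response curve. GI50 is the concentration that inhibits growth by half.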 The source made the active and inactive calls. No stated cut-off is given here; in the data, active = GI50 up to about 1.1 µM and inactive = higher.

Columns and labels:
Test in all cases: NCI anticancer screen, dose series, 48 h
DMS-273 = tested on: DMS-273
HT-29 = tested on: HT-29
OVCAR-3 = tested on: OVCAR-3
Malme-3M = tested on: Malme-3M
A498 = tested on: A498
786-0 = tested on: 786-0
SNB-75 = tested on: SNB-75
OVCAR-8 = tested on: OVCAR-8
KM12 = tested on: KM12
SF-295 = tested on: SF-295
RXF 393 = tested on: RXF 393
LXFL 529 = tested on: LXFL 529
SK-MEL-5 = tested on: SK-MEL-5
NCI-H226 = tested on: NCI-H226
TK-10 = tested on: TK-10
HL-60 = tested on: HL-60
IGROV-1 = tested on: IGROV-1
HCC 2998 = tested on: HCC 2998
UO-31 = tested on: UO-31
XF498 = tested on: XF498
SK-MEL-2 = tested on: SK-MEL-2
RXF 631 = tested on: RXF 631
SW-620 = tested on: SW-620
U-251 = tested on: U-251
M14 = tested on: M14
NCI-H23 = tested on: NCI-H23
UACC-257 = tested on: UACC-257
NCI-H460 = tested on: NCI-H460
RPMI-8226 = tested on: RPMI-8226
K562 = tested on: K562
SNB-78 = tested on: SNB-78
A549 = tested on: A549
KM-20L2 = tested on: KM-20L2
CCRF-CEM = tested on: CCRF-CEM
CAKI-1 = tested on: CAKI-1
DLD-1 = tested on: DLD-1
OVCAR-4 = tested on: OVCAR-4
SF-539 = tested on: SF-539
SK-OV-3 = tested on: SK-OV-3
HCT-116 = tested on: HCT-116
EKVX = tested on: EKVX
SK-MEL-28 = tested on: SK-MEL-28
HOP-62 = tested on: HOP-62
M19-MEL = tested on: M19-MEL
MOLT-4 = tested on: MOLT-4
UACC-62 = tested on: UACC-62
ACHN = tested on: ACHN
HCT-15 = tested on: HCT-15
DMS-114 = tested on: DMS-114
OVCAR-5 = tested on: OVCAR-5
HOP-92 = tested on: HOP-92
SF-268 = tested on: SF-268
NCI-H522 = tested on: NCI-H522
LOX IMVI = tested on: LOX IMVI
COLO 205 = tested on: COLO 205
SN12C = tested on: SN12C
SNB-19 = tested on: SNB-19
SR = tested on: SR
HOP-18 = tested on: HOP-18

With `CN1C(=O)CCC2[C@@H]3CC=C4C[C@@H](O)CC[C@]4(C)C3CC[C@@]21C` (stereo partly drawn) the GI50 (DMS-273) was 64.1 µM (inactive), the GI50 (HT-29) was 36.6 µM (inactive) and the GI50 (OVCAR-3) was 49.5 µM (inactive). The GI50 (Malme-3M) was 82.4 µM (inactive), the GI50 (A498) was > 100 µM (inactive) and the GI50 (786-0) was 94.4 µM (inactive). The GI50 (SNB-75) was > 100 µM (inactive), the GI50 (OVCAR-8) was 64.9 µM (inactive) and the GI50 (KM12) was 59.8 µM (inactive). The GI50 (SF-295) was 27.2 µM (inactive), the GI50 (RXF 393) was 18.3 µM (inactive) and the GI50 (LXFL 529) was 29.1 µM (inactive). For the same molecule, the GI50 (SK-MEL-5) was 13.5 µM (inactive), the GI50 (NCI-H226) was > 100 µM (inactive) and the GI50 (TK-10) was > 100 µM (inactive). The GI50 (HL-60) was 11.5 µM (inactive), the GI50 (IGROV-1) was 96.2 µM (inactive) and the GI50 (HCC 2998) was > 100 µM (inactive). For the same molecule, the GI50 (UO-31) was 33.8 µM (inactive), the GI50 (XF498) was 45.7 µM (inactive) and the GI50 (SK-MEL-2) was > 100 µM (inactive). For the same molecule, the GI50 (RXF 631) was 28 µM (inactive), the GI50 (SW-620) was > 100 µM (inactive) and the GI50 (U-251) was > 100 µM (inactive). The GI50 (M14) was 83.6 µM (inactive), the GI50 (NCI-H23) was 25.4 µM (inactive) and the GI50 (UACC-257) was 20.3 µM (inactive). For the same molecule, the GI50 (NCI-H460) was 45 µM (inactive), the GI50 (RPMI-8226) was 20.8 µM (inactive) and the GI50 (K562) was 21.3 µM (inactive). The GI50 (SNB-78) was > 100 µM (inactive), the GI50 (A549) was 46.1 µM (inactive) and the GI50 (KM-20L2) was 53.5 µM (inactive). The GI50 (CCRF-CEM) was 36.1 µM (inactive), the GI50 (CAKI-1) was 50.2 µM (inactive) and the GI50 (DLD-1) was > 100 µM (inactive). The GI50 (OVCAR-4) was 33.4 µM (inactive), the GI50 (SF-539) was 45.9 µM (inactive) and the GI50 (SK-OV-3) was > 100 µM (inactive). The GI50 (HCT-116) was 33.5 µM (inactive), the GI50 (EKVX) was 67.5 µM (inactive) and the GI50 (SK-MEL-28) was > 100 µM (inactive). The GI50 (HOP-62) was 45.9 µM (inactive), the GI50 (M19-MEL) was 50.6 µM (inactive) and the GI50 (MOLT-4) was 18.5 µM (inactive). The GI50 (UACC-62) was 62.4 µM (inactive), the GI50 (ACHN) was 42.4 µM (inactive) and the GI50 (HCT-15) was 71.6 µM. For the same molecule, the GI50 (DMS-114) was 16.4 µM (inactive) and the GI50 (OVCAR-5) was 97.7 µM (inactive).
In the case of `Cc1cc(Cl)ccc1NC(=O)CCCC(=O)C(C(=O)c1ccccc1)c1ccccc1` (stereo not drawn), the GI50 (DMS-273) is reported as > 100 µM (inactive), the GI50 (HT-29) is reported as > 100 µM (inactive) and the GI50 (OVCAR-3) is reported as > 100 µM (inactive). The GI50 (Malme-3M) was > 100 µM (inactive), the GI50 (A498) was > 100 µM (inactive) and the GI50 (786-0) was > 100 µM (inactive). The GI50 (HOP-92) was > 100 µM (inactive), the GI50 (KM12) was > 100 µM (inactive) and the GI50 (SF-295) was > 100 µM (inactive). The GI50 (LXFL 529) was > 100 µM (inactive), the GI50 (HL-60) was > 100 µM (inactive) and the GI50 (IGROV-1) was > 100 µM (inactive). The GI50 (HCC 2998) was > 100 µM (inactive), the GI50 (SF-268) was > 100 µM (inactive) and the GI50 (NCI-H522) was > 100 µM (inactive). For the same molecule, the GI50 (SK-MEL-2) was > 100 µM (inactive), the GI50 (RXF 631) was > 100 µM (inactive) and the GI50 (U-251) was > 100 µM (inactive). For the same molecule, the GI50 (M14) was > 100 µM (inactive), the GI50 (LOX IMVI) was > 100 µM (inactive) and the GI50 (NCI-H23) was > 100 µM (inactive). The GI50 (UACC-257) was > 100 µM (inactive), the GI50 (NCI-H460) was > 100 µM (inactive) and the GI50 (COLO 205) was > 100 µM (inactive). For the same molecule, the GI50 (SN12C) was > 100 µM (inactive), the GI50 (RPMI-8226) was > 100 µM (inactive) and the GI50 (K562) was > 100 µM (inactive). The GI50 (SNB-78) was > 100 µM (inactive), the GI50 (KM-20L2) was > 100 µM (inactive) and the GI50 (CCRF-CEM) was > 100 µM (inactive). The GI50 (CAKI-1) was > 100 µM (inactive), the GI50 (DLD-1) was > 100 µM (inactive) and the GI50 (OVCAR-4) was > 100 µM (inactive). For the same molecule, the GI50 (SK-OV-3) was > 100 µM (inactive), the GI50 (HOP-62) was 93.5 µM (inactive) and the GI50 (M19-MEL) was > 100 µM (inactive). For the same molecule, the GI50 (MOLT-4) was > 100 µM (inactive), the GI50 (UACC-62) was > 100 µM (inactive) and the GI50 (ACHN) was > 100 µM (inactive). The GI50 (HCT-15) was > 100 µM, the GI50 (DMS-114) was > 100 µM (inactive) and the GI50 (OVCAR-5) was > 100 µM (inactive).
With `COc1cc(/C=C2\[C@@H]3NC(Cc4c(OC)c(C)c(OC)c(OC)c43)C(=O)N2Cc2ccccc2)c(OC)c(C)c1OC` the GI50 (DMS-273) was 27.9 µM (inactive), the GI50 (HT-29) was 24.9 µM (inactive) and the GI50 (OVCAR-3) was 31.7 µM (inactive). The GI50 (Malme-3M) was 28.2 µM (inactive), the GI50 (A498) was 30.9 µM (inactive) and the GI50 (786-0) was 48.6 µM (inactive). For the same molecule, the GI50 (SNB-75) was 27.7 µM (inactive), the GI50 (HOP-92) was 20 µM (inactive) and the GI50 (SNB-19) was 80.5 µM (inactive). The GI50 (OVCAR-8) was 36.1 µM (inactive), the GI50 (KM12) was 56.1 µM (inactive) and the GI50 (SF-295) was 40.8 µM (inactive). The GI50 (RXF 393) was 23 µM (inactive), the GI50 (LXFL 529) was 37.5 µM (inactive) and the GI50 (SK-MEL-5) was 34.1 µM (inactive). The GI50 (NCI-H226) was 36.7 µM (inactive), the GI50 (TK-10) was 40.6 µM (inactive) and the GI50 (HL-60) was 24.6 µM (inactive). For the same molecule, the GI50 (IGROV-1) was 34.1 µM (inactive), the GI50 (HCC 2998) was 38.6 µM (inactive) and the GI50 (UO-31) was 27 µM (inactive). For the same molecule, the GI50 (SF-268) was 59.3 µM (inactive), the GI50 (NCI-H522) was 18.4 µM (inactive) and the GI50 (SK-MEL-2) was 19.9 µM (inactive). For the same molecule, the GI50 (RXF 631) was 53.7 µM (inactive), the GI50 (SW-620) was 68.9 µM (inactive) and the GI50 (SR) was 25 µM (inactive). The GI50 (U-251) was 35.2 µM (inactive), the GI50 (M14) was 31.3 µM (inactive) and the GI50 (LOX IMVI) was 42.7 µM (inactive). For the same molecule, the GI50 (NCI-H23) was 49.7 µM (inactive), the GI50 (UACC-257) was 34.7 µM (inactive) and the GI50 (NCI-H460) was 21.6 µM (inactive). The GI50 (COLO 205) was 15 µM (inactive), the GI50 (SN12C) was 40.3 µM (inactive) and the GI50 (RPMI-8226) was 29.8 µM (inactive). For the same molecule, the GI50 (K562) was 34.3 µM (inactive), the GI50 (HOP-18) was 43.8 µM (inactive) and the GI50 (A549) was 41.5 µM (inactive). The GI50 (KM-20L2) was 37.8 µM (inactive), the GI50 (CCRF-CEM) was 30.8 µM (inactive) and the GI50 (CAKI-1) was 48 µM (inactive). For the same molecule, the GI50 (DLD-1) was 45.4 µM (inactive), the GI50 (OVCAR-4) was 32.3 µM (inactive) and the GI50 (SF-539) was 66.4 µM (inactive). For the same molecule, the GI50 (SK-OV-3) was 26.2 µM (inactive), the GI50 (HCT-116) was 37.5 µM (inactive) and the GI50 (EKVX) was 29.4 µM (inactive). For the same molecule, the GI50 (SK-MEL-28) was 60.7 µM (inactive), the GI50 (HOP-62) was 54.1 µM (inactive) and the GI50 (M19-MEL) was 28.5 µM (inactive). For the same molecule, the GI50 (MOLT-4) was 27.5 µM (inactive), the GI50 (UACC-62) was 47.5 µM (inactive) and the GI50 (ACHN) was 44 µM (inactive). The GI50 (DMS-114) was 29.8 µM (inactive) and the GI50 (OVCAR-5) was 41.3 µM (inactive).
